This is an account of results in patent publication US20230167127A1, “COMPOUNDS AND THEIR USE IN THE TREATMENT OF BACTERIAL INFECTION” (Hoffmann-La Roche Inc., priority 2020, published 2023).

A value given as a limit tells only on which side of the number the result lay.

The first experiment relates to Escherichia coli ATCC 25922. The experiment in a line: 50% growth inhibitory concentration (IC50) determination, Iso-Sensitest broth dilution. It is filed as cell-based. The note with it: Escherichia coli, ATCC25922, 16 h, strain Escherichia coli ATCC 25922; 10-point broth dilution, optical density at 600 nm over 16 h; read-out: Escherichia coli growth inhibition IC50. The method, boiled down:
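Growth was tracked as optical density at 600 nm every 20 minutes for 16 h at 35±2° C. Compounds from DMSO stocks were serially diluted twofold over 10 points (e.g. 50–0.097 μM final) in Iso-Sensitest broth. Inhibition computed in log-phase growth to give IC50.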
A general note: Broth dilution looks for growth in wells or tubes with falling amounts of substance.
For `O=C1COc2ncc(N3CC(CCNCC4Cc5cc(OCCn6cnnn6)cc(F)c5C4)OC3=O)nc2N1` (stereo not drawn) [Example 347, 6-[5-[2-[[4-fluoro-6-[2-(tetrazol-1-yl)ethoxy]-2,3-dihydro-1H-inden-2-yl]methylamino]ethyl]-2-oxo-1,3-oxazolidin-3-yl]-4H-pyrazino[2,3-b][1,4]oxazin-3-one; formic acid], the IC50 was determined as 175 nM.
On to `N#Cc1c(OCCN)ccc2c1CC(CNCCC1CN(c3ccc4c(n3)NC(=O)CO4)C(=O)O1)C2` (stereo not drawn) [Example 128, 5-(2-aminoethoxy)-2-[[2-[2-oxo-3-(3-oxo-4H-pyrido[3,2-b][1,4]oxazin-6-yl)-1,3-oxazolidin-5-yl]ethylamino]methyl]-2,3-dihydro-1H-indene-4-carbonitrile; formic acid], for which the half-maximal inhibitory concentration (IC50) was 98.1 nM.
On the same count and under the same terms, the result for `N#Cc1cc(OCC2(N)CC2)cc2c1CC(CCNCC1CN(c3ccc4c(n3)NC(=O)CO4)C(=O)O1)C2` (stereo not drawn) [Example 196, 6-((1-aminocyclopropyl)methoxy)-2-(2-(((2-oxo-3-(3-oxo-3,4-dihydro-2H-pyrido[3,2-b][1,4]oxazin-6-yl)oxazolidin-5-yl)methyl)amino)ethyl)-2,3-dihydro-1H-indene-4-carbonitrile] reads less than 97.7 nM; that for `N#Cc1c(OC2COC2)ccc2c1CC(CNCCC1CN(c3ccc4c(n3)NC(=O)CO4)C(=O)O1)C2` (stereo not drawn) [Example 63, 5-(oxetan-3-yloxy)-2-[[2-[2-oxo-3-(3-oxo-4H-pyrido[3,2-b][1,4]oxazin-6-yl)-1,3-oxazolidin-5-yl]ethylamino]methyl]-2,3-dihydro-1H-indene-4-carbonitrile], less than 97.7 nM; that for `Cc1ncc(F)c2c1CC(CNCCC1CN(c3ccc4c(n3)NC(=O)CO4)C(=O)O1)C2` (stereo not drawn) [Example 36, 6-[5-[2-[(4-fluoro-1-methyl-6,7-dihydro-5H-cyclopenta[c]pyridin-6-yl)methylamino]ethyl]-2-oxo-1,3-oxazolidin-3-yl]-4H-pyrido[3,2-b][1,4]oxazin-3-one], less than 97.7 nM.
Still for that read-out and setting: the result for `Cc1nc2c(c3c1CC(CNCCC1CN(c4ccc5c(n4)NC(=O)CO5)C(=O)O1)C3)CCN2C` (stereo not drawn) [Example 416, 6-[5-[2-[(5,8-dimethyl-5,7-diazatricyclo[7.3.0.0^2,6]dodeca-1,6,8-trien-11-yl)methylamino]ethyl]-2-oxo-1,3-oxazolidin-3-yl]-4H-pyrido[3,2-b][1,4]oxazin-3-one] reads 95.1 nM; that for `Nc1nnnn1CCOc1cc(F)c2c(c1)CC(CNCCC1CN(c3cnc4c(n3)NC(=O)CO4)C(=O)O1)C2` (stereo not drawn) [Example 294, 6-[5-[2-[[6-[2-(5-aminotetrazol-1-yl)ethoxy]-4-fluoro-2,3-dihydro-1H-inden-2-yl]methylamino]ethyl]-2-oxo-1,3-oxazolidin-3-yl]-4H-pyrazino[2,3-b][1,4]oxazin-3-one; formic acid], 727 nM.
Same read-out and setting: the figure for `Cc1noc(COc2cc(C#N)c3c(c2)CC(CNCCC2CN(c4cnc5c(n4)NC(=O)CO5)C(=O)O2)C3)n1` (stereo not drawn) [Example 387, 6-[(3-methyl-1,2,4-oxadiazol-5-yl)methoxy]-2-[[2-[2-oxo-3-(3-oxo-4H-pyrazino[2,3-b][1,4]oxazin-6-yl)-1,3-oxazolidin-5-yl]ethylamino]methyl]-2,3-dihydro-1H-indene-4-carbonitrile] is less than 97.7 nM; for `O=C1COc2ccc(N3CC(CNC4Cc5ccc(Cl)cc5C4)OC3=O)nc2N1` (stereo not drawn) [Example 25, 6-[5-[[(5-chloro-2,3-dihydro-1H-inden-2-yl)amino]methyl]-2-oxo-1,3-oxazolidin-3-yl]-4H-pyrido[3,2-b] [1,4]oxazin-3-one] it is 4070 nM.
For `Cc1nc(OCC2(N)CC2)c(C#N)c2c1CC(CNCCC1CN(c3ccc4c(n3)NC(=O)CO4)C(=O)O1)C2` (stereo not drawn) [Example 214, 3-[(1-aminocyclopropyl)methoxy]-1-methyl-6-[[2-[2-oxo-3-(3-oxo-4H-pyrido[3,2-b][1,4]oxazin-6-yl)-1,3-oxazolidin-5-yl]ethylamino]methyl]-6,7-dihydro-5H-cyclopenta[c]pyridine-4-carbonitrile], the IC50 is less than 97.7 nM.
The same measure, in the same setting: the result for `N#Cc1cccc2c1CC(CNCCC1(CN)CN(c3ccc4c(n3)NC(=O)CO4)C(=O)O1)C2` (stereo not drawn) [Example 243, 2-[[2-[5-(aminomethyl)-2-oxo-3-(3-oxo-4H-pyrido[3,2-b][1,4]oxazin-6-yl)-1,3-oxazolidin-5-yl]ethylamino]methyl]-2,3-dihydro-1H-indene-4-carbonitrile] reads 199 nM; that for `CS(=O)(=O)NCCOc1ccc2c(c1C#N)CC(CNCCC1CN(c3ccc4c(n3)NC(=O)CO4)C(=O)O1)C2` (stereo not drawn) [Example 59, N-[2-[[4-cyano-2-[[2-[2-oxo-3-(3-oxo-4H-pyrido[3,2-b][1,4]oxazin-6-yl)-1,3-oxazolidin-5-yl]ethylamino]methyl]-2,3-dihydro-1H-inden-5-yl]oxy]ethyl]methanesulfonamide], 253 nM.
For `Cc1ncc(F)c2c1CC(N[C@H]1CC[C@]3(CC1)CN(c1cnc4c(n1)NC(=O)CO4)C(=O)O3)C2` (stereo partly drawn) [Example 297, trans-6-[8-[(4-fluoro-1-methyl-6,7-dihydro-5H-cyclopenta[c]pyridin-6-yl)amino]-2-oxo-1-oxa-3-azaspiro[4.5]decan-3-yl]-4H-pyrazino[2,3-b][1,4]oxazin-3-one; formic acid], the IC50 is 249 nM.
`NC1(COc2cc(F)c3c(c2)CC(CNCCC2CN(c4ccc5c(n4)NC(=O)CO5)C(=O)O2)C3)COC1` (stereo not drawn) [Example 162, 6-[5-[2-[[6-[(3-aminooxetan-3-yl)methoxy]-4-fluoro-2,3-dihydro-1H-inden-2-yl]methylamino]ethyl]-2-oxo-1,3-oxazolidin-3-yl]-4H-pyrido[3,2-b][1,4]oxazin-3-one; formic acid]: the IC50 is 195 nM.
Same read-out and setting: the figure for `CNc1cc2c(c(C)n1)CC(CNCCC1CN(c3ccc4c(n3)NC(=O)CO4)C(=O)O1)C2` (stereo not drawn) [Example 420, 6-[5-[2-[[1-Methyl-3-(methylamino)-6,7-dihydro-5H-cyclopenta[c]pyridin-6-yl]methylamino]ethyl]-2-oxo-1,3-oxazolidin-3-yl]-4H-pyrido[3,2-b][1,4]oxazin-3-one] is 196 nM; for `N#Cc1cccc2c1C(N)C(CNCCC1CN(c3ccc4c(n3)NC(=O)CS4)C(=O)O1)C2` (racemic) [Example 157, rac-2,3-trans-3-amino-2-[[2-[2-oxo-3-(3-oxo-4H-pyrido[3,2-b][1,4]thiazin-6-yl)-1,3-oxazolidin-5-yl]ethylamino]methyl]-2,3-dihydro-1H-indene-4-carbonitrile] it is less than 97.7 nM; for `Cc1ncc(F)c2c1CC(C(C)NCC[C@H]1CN(c3cnc4c(n3)NC(=O)CO4)C(=O)O1)C2` (stereo partly drawn) [Example 330, 6-[(5S)-5-[2-[1-(4-fluoro-1-methyl-6,7-dihydro-5H-cyclopenta[c]pyridin-6-yl)ethylamino]ethyl]-2-oxo-1,3-oxazolidin-3-yl]-4H-pyrazino[2,3-b][1,4]oxazin-3-one; formic acid] it is less than 97.7 nM.
On the same count and under the same terms, the figure for `CNC(=O)COc1cc(F)c2c(c1)CC(CNCCC1CN(c3ccc4c(n3)NC(=O)CO4)C(=O)O1)C2` (stereo not drawn) [Example 69, 2-[[7-fluoro-2-[[2-[2-oxo-3-(3-oxo-4H-pyrido[3,2-b][1,4]oxazin-6-yl)-1,3-oxazolidin-5-yl]ethylamino]methyl]-2,3-dihydro-1H-inden-5-yl]oxy]-N-methylacetamide; formic acid] is 123 nM; for `O=C1COc2ccc(N3CC(CCCNC4Cc5cccc(F)c5C4)OC3=O)nc2N1` (stereo not drawn) [Example 8, 6-[5-[3-[(4-fluoro-2,3-dihydro-1H-inden-2-yl)amino]propyl]-2-oxo-1,3-oxazolidin-3-yl]-4H-pyrido[3,2-b][1,4]oxazin-3-one; formic acid] it is 167 nM.
With `NC1c2cccc(Cl)c2CC1CCNCC1CN(c2cnc3c(n2)NC(=O)CO3)C(=O)O1` (racemic) [Example 266, 6-[2-Oxo-5-[[2-[rac-1,2-trans-1-amino-4-chloro-2,3-dihydro-1H-inden-2-yl]ethylamino]methyl]-1,3-oxazolidin-3-yl]-4H-pyrazino[2,3-b][1,4]oxazin-3-one], the IC50 turned out to be 206 nM.
The same measure, in the same setting: the result for `N[C@H](CO)COc1ncc2c(c1Cl)CC(CNCCC1CN(c3ccc4c(n3)NC(=O)CO4)C(=O)O1)C2` (stereo partly drawn) [Example 237, 6-[5-[2-[[4-Chloro-3-[(2R)-2-amino-3-hydroxypropoxy]-6,7-dihydro-5H-cyclopenta[c]pyridin-6-yl]methylamino]ethyl]-2-oxo-1,3-oxazolidin-3-yl]-4H-pyrido[3,2-b][1,4]oxazin-3-one] reads 140 nM; that for `Cc1c(OCC(=O)NC(C)C)ncc2c1CC(CNCCC1CN(c3ccc4c(n3)NC(=O)CO4)C(=O)O1)C2` (stereo not drawn) [Example 224, N-isopropyl-2-((4-methyl-6-(((2-(2-oxo-3-(3-oxo-3,4-dihydro-2H-pyrido[3,2-b][1,4]oxazin-6-yl)oxazolidin-5-yl)ethyl)amino)methyl)-6,7-dihydro-5H-cyclopenta[c]pyridin-3-yl)oxy)acetamide], 791 nM.

Staying with this experiment, now noted: strain Escherichia coli ATCC 25922; 10-point broth dilution, optical density at 600 nm over 16 h; read-out: Escherichia coli growth inhibition IC50.
Take `Cc1ncc(F)c2c1CC(CN1CCC3(CN(c4ccc5c(n4)NC(=O)CO5)C(=O)O3)C(CN)C1)C2` (racemic) [Example 250, 6-[rac-5,6-trans-6-(Aminomethyl)-8-[(4-fluoro-1-methyl-6,7-dihydro-5H-cyclopenta[c]pyridin-6-yl)methyl]-2-oxo-1-oxa-3,8-diazaspiro[4.5]decan-3-yl]-4H-pyrido[3,2-b][1,4]oxazin-3-one]: the 50% inhibitory concentration (IC50) was 289 nM.
On the same count and under the same terms, the figure for `O=C1COc2ncc(N3CC(CC(O)CNC4Cc5cccc(F)c5C4)OC3=O)nc2N1` (single isomer, unassigned; isomer a) [Example 83, 6-[5-[3-[(4-fluoro-2,3-dihydro-1H-inden-2-yl)amino]-2-hydroxypropyl]-2-oxo-1,3-oxazolidin-3-yl]-4H-pyrazino[2,3-b][1,4]oxazin-3-one, Isomer A; formic acid] is less than 97.7 nM.

In general, IC50 refers to the point on the concentration scale where inhibition reaches its midpoint.
